From the CheMixHub ionic liquid set
± gives the uncertainty stated by the source.

Experiment: xn = mol fraction of the nth substance listed

With `C=CC[n+]1ccn(C)c1.[Cl-]` + O the viscosity (298.15 K, 101 kPa, x2 = 0.193) was 697 ± 28 mPa·s, the viscosity (298.15 K, 101 kPa, x2 = 0.267) was 427 ± 15 mPa·s and the viscosity (303.15 K, 101 kPa, x2 = 0.335) was 184 ± 12 mPa·s. It also gave a viscosity (313.15 K, 101 kPa, x2 = 0.045) of 473 ± 42 mPa·s, a viscosity (313.15 K, 101 kPa, x2 = 0.126) of 312 ± 10 mPa·s and a viscosity (323.15 K, 101 kPa, x2 = 0.335) of 61 ± 3 mPa·s. For the same compound, the viscosity (333.15 K, 101 kPa, x2 = 0.091) was 108 ± 5 mPa·s, the viscosity (353.15 K, 101 kPa, x2 = 0.126) was 36.9 ± 0.8 mPa·s and the viscosity (353.15 K, 101 kPa, x2 = 0.267) was 24.3 ± 0.5 mPa·s. For the same compound, the viscosity (363.15 K, 101 kPa, x2 = 0.091) was 28.6 ± 0.9 mPa·s, the viscosity (363.15 K, 101 kPa, x2 = 0.126) was 25.6 ± 0.6 mPa·s and the viscosity (373.15 K, 101 kPa, x2 = 0.126) was 18.58 ± 0.41 mPa·s. It also gave a viscosity (373.15 K, 101 kPa, x2 = 0.193) of 15.98 ± 0.35 mPa·s and a viscosity (373.15 K, 101 kPa, x2 = 0.267) of 13.37 ± 0.29 mPa·s.
Compound `CCCCCCCCCCCCCC[N+](C)(C)C.[Br-]` + O has a viscosity (298.15 K, 101 kPa, x1 = 2.973e-05) of 0.8984 mPa·s, a viscosity (298.15 K, 101 kPa, x1 = 4.144e-05) of 0.8992 mPa·s and a viscosity (298.15 K, 101 kPa, x1 = 4.541e-05) of 0.9002 mPa·s. It also gave a viscosity (298.15 K, 101 kPa, x1 = 6.289e-05) of 0.9005 mPa·s, a viscosity (298.15 K, 101 kPa, x1 = 6.739e-05) of 0.9013 mPa·s and a viscosity (298.15 K, 101 kPa, x1 = 7.262e-05) of 0.9019 mPa·s. The viscosity (298.15 K, 101 kPa, x1 = 0.0001005) was 0.9029 mPa·s, the viscosity (298.15 K, 101 kPa, x1 = 0.0001191) was 0.9053 mPa·s and the viscosity (298.15 K, 101 kPa, x1 = 0.000178) was 0.9083 mPa·s.
Compound `CCCCCCCCCCCn1cc[n+](C)c1.O=S(=O)([N-]S(=O)(=O)C(F)(F)F)C(F)(F)F` + O has a viscosity (338.15 K, 100 kPa, x2 = 0.1567) of 20.54 ± 0.18 mPa·s.
`CCCCC[n+]1ccccc1.N#C[N-]C#N` + O gave an electrical conductivity (298.15 K, 100 kPa, x1 = 0.9354) of 0.667 ± 0.019 S/m, an electrical conductivity (303.15 K, 100 kPa, x1 = 0.9354) of 0.833 ± 0.022 S/m and a viscosity (308.15 K, 100 kPa, x1 = 0.9514) of 28.8 ± 1.2 mPa·s. For the same compound, the electrical conductivity (308.15 K, 100 kPa, x1 = 0.9515) was 0.979 ± 0.024 S/m, the viscosity (308.15 K, 100 kPa, x1 = 0.968) was 29.6 ± 1.2 mPa·s and the viscosity (313.15 K, 100 kPa, x1 = 0.9196) was 22.92 ± 0.95 mPa·s. The electrical conductivity (313.15 K, 100 kPa, x1 = 0.9198) was 1.23 ± 0.028 S/m, the electrical conductivity (318.15 K, 100 kPa, x1 = 0.9681) was 1.27 ± 0.03 S/m and the electrical conductivity (318.15 K, 100 kPa, x2 = 0.01457) was 1.23 ± 0.029 S/m. It also gave a viscosity (323.15 K, 100 kPa, x1 = 0.9196) of 15.16 ± 0.63 mPa·s, an electrical conductivity (323.15 K, 100 kPa, x1 = 0.9198) of 1.67 ± 0.038 S/m and a viscosity (323.15 K, 100 kPa, x1 = 0.968) of 16.91 ± 0.7 mPa·s. The electrical conductivity (323.15 K, 100 kPa, x1 = 0.9681) was 1.5 ± 0.035 S/m, the viscosity (323.15 K, 100 kPa, x2 = 0.01492) was 17.54 ± 0.73 mPa·s and the viscosity (328.15 K, 100 kPa, x1 = 0.9351) was 14.21 ± 0.59 mPa·s. For the same compound, the electrical conductivity (328.15 K, 100 kPa, x1 = 0.9354) was 1.82 ± 0.04 S/m, the electrical conductivity (328.15 K, 100 kPa, x2 = 0.01457) was 1.65 ± 0.038 S/m and the viscosity (328.15 K, 100 kPa, x2 = 0.01492) was 15.11 ± 0.62 mPa·s. It also gave a viscosity (338.15 K, 100 kPa, x1 = 0.9514) of 11.11 ± 0.46 mPa·s and an electrical conductivity (338.15 K, 100 kPa, x1 = 0.9515) of 2.23 ± 0.049 S/m.
With `CCCC[n+]1ccn(C)c1.N#C[N-]C#N` + O the viscosity (303 K, 100 kPa, x1 = 0.6252) was 15.03 ± 0.33 mPa·s, the viscosity (308 K, 100 kPa, x1 = 0.6252) was 12.94 ± 0.28 mPa·s and the viscosity (313 K, 100 kPa, x1 = 0.6252) was 11.27 ± 0.25 mPa·s. The viscosity (318 K, 100 kPa, x1 = 0.6252) was 9.91 ± 0.21 mPa·s and the viscosity (323 K, 100 kPa, x1 = 0.6252) was 8.77 ± 0.19 mPa·s.
`CCCC[n+]1ccn(C)c1.N#C[S-]` + O showed an electrical conductivity (298.15 K, 101 kPa, x1 = 0.0004503) of 0.224 ± 0.001 S/m, an electrical conductivity (298.15 K, 101 kPa, x1 = 0.0009182) of 0.395 ± 0.001 S/m and an electrical conductivity (298.15 K, 101 kPa, x1 = 0.001853) of 0.716 ± 0.001 S/m. For the same compound, the electrical conductivity (298.15 K, 101 kPa, x1 = 0.00477) was 1.451 ± 0.001 S/m, the electrical conductivity (298.15 K, 101 kPa, x1 = 0.00776) was 1.952 ± 0.001 S/m and the electrical conductivity (298.15 K, 101 kPa, x1 = 0.01001) was 2.3 ± 0.001 S/m. The viscosity (298.15 K, 101 kPa, x2 = 0.2007) was 33 ± 2.1 mPa·s, the viscosity (298.15 K, 101 kPa, x2 = 0.3169) was 25.9 ± 1.6 mPa·s and the electrical conductivity (298.15 K, 101 kPa, x2 = 0.9437) was 4.47 ± 0.001 S/m. For the same compound, the electrical conductivity (298.15 K, 101 kPa, x2 = 0.9626) was 4.02 ± 0.001 S/m, the electrical conductivity (298.15 K, 101 kPa, x2 = 0.9781) was 3.33 ± 0.001 S/m and the viscosity (308.15 K, 101 kPa, x2 = 0.2007) was 22.5 ± 1.4 mPa·s. For the same compound, the viscosity (318.15 K, 101 kPa, x2 = 0.2007) was 16.2 ± 1 mPa·s, the viscosity (318.15 K, 101 kPa, x2 = 0.3169) was 13.24 ± 0.83 mPa·s and the viscosity (318.15 K, 101 kPa, x2 = 0.7201) was 4.66 ± 0.29 mPa·s. The viscosity (328.15 K, 101 kPa, x2 = 0) was 16.7 ± 1 mPa·s, the viscosity (328.15 K, 101 kPa, x2 = 0.0998) was 14.22 ± 0.89 mPa·s and the viscosity (328.15 K, 101 kPa, x2 = 0.6426) was 4.71 ± 0.29 mPa·s. The viscosity (328.15 K, 101 kPa, x2 = 0.7201) was 3.65 ± 0.23 mPa·s, the viscosity (338.15 K, 101 kPa, x2 = 0.3169) was 7.96 ± 0.5 mPa·s and the viscosity (338.15 K, 101 kPa, x2 = 0.5296) was 5.12 ± 0.32 mPa·s. The viscosity (338.15 K, 101 kPa, x2 = 0.7949) was 2.23 ± 0.14 mPa·s and the viscosity (348.15 K, 101 kPa, x2 = 0.5296) was 4.16 ± 0.26 mPa·s.
With `CCCCn1cc[n+](CCCC)c1.O=S(=O)([N-]S(=O)(=O)C(F)(F)F)C(F)(F)F` + O the viscosity (308.15 K, 100 kPa, x2 = 0.1843) was 32.12 ± 0.28 mPa·s, the viscosity (358.15 K, 100 kPa, x2 = 0.1843) was 7.83 ± 0.07 mPa·s and the viscosity (363.15 K, 100 kPa, x2 = 0.1843) was 7.07 ± 0.06 mPa·s.
`CCOS(=O)(=O)[O-].CC[N+]1(C)CCCC1` + O gave a viscosity (313.15 K, 101 kPa, x2 = 0) of 78 ± 13 mPa·s, a viscosity (313.15 K, 101 kPa, x2 = 0.105) of 65 ± 10 mPa·s and a viscosity (318.15 K, 101 kPa, x2 = 0) of 65 ± 10 mPa·s. For the same compound, the viscosity (318.15 K, 101 kPa, x2 = 0.7542) was 8.9 ± 1.4 mPa·s, the viscosity (323.15 K, 101 kPa, x2 = 0.7542) was 7.7 ± 1.2 mPa·s and the viscosity (333.15 K, 101 kPa, x2 = 0.9652) was 0.99 ± 0.16 mPa·s. It also gave a viscosity (338.15 K, 101 kPa, x2 = 0.6505) of 7.7 ± 1.2 mPa·s, a viscosity (338.15 K, 101 kPa, x2 = 0.9652) of 0.98 ± 0.16 mPa·s and a viscosity (343.15 K, 101 kPa, x2 = 0.6505) of 6.6 ± 1.1 mPa·s. It also gave a viscosity (343.15 K, 101 kPa, x2 = 0.9652) of 0.98 ± 0.16 mPa·s.
For `CC[NH+](CC)CC.O=S(=O)([O-])O` + O, the viscosity (298.15 K, 101 kPa, x2 = 0.3012) was 184 ± 19 mPa·s, the viscosity (298.15 K, 101 kPa, x2 = 0.4244) was 169 ± 17 mPa·s and the viscosity (298.15 K, 101 kPa, x2 = 0.6124) was 140 ± 13 mPa·s. For the same compound, the viscosity (298.15 K, 101 kPa, x2 = 0.7344) was 110.8 ± 9.6 mPa·s and the viscosity (298.15 K, 101 kPa, x2 = 0.9244) was 39.8 ± 2.8 mPa·s.
For `CCCO` + O + CCCCCCCCCCCCOS(=O)(=O)[O-].[Na+], the electrical conductivity (298 K, 100 kPa, frequency 0.001 MHz, x1 = 0.01544, x3 = 0) was 0.00015 S/m, the electrical conductivity (298 K, 100 kPa, frequency 0.001 MHz, x1 = 0.02615, x2 = 0.9739) was 0.00015 S/m and the electrical conductivity (298 K, 100 kPa, frequency 0.001 MHz, x1 = 0.04738, x2 = 0.9526) was 0.00011 S/m. For the same compound, the electrical conductivity (298 K, 100 kPa, frequency 0.001 MHz, x1 = 0.07176, x2 = 0.9282) was 0.00012 S/m and the electrical conductivity (298 K, 100 kPa, frequency 0.001 MHz, x1 = 0.1087, x2 = 0.8913) was 0.00014 S/m.
`CC(=O)[O-].[K+]` + O + CCCC[n+]1ccn(C)c1.N#C[S-] showed a viscosity (298.15 K, 101 kPa, x1 = 0.1054, x2 = 0.8943) of 3.195 ± 0.029 mPa·s, a viscosity (308.15 K, 101 kPa, x1 = 0.1054, x2 = 0.8943) of 2.485 ± 0.023 mPa·s and a viscosity (313.15 K, 101 kPa, x1 = 0.01175, x2 = 0.8368) of 4.625 ± 0.064 mPa·s.
Work on `CC(=O)[O-].[K+]` + O + CCCC[n+]1ccn(C)c1.O=S(=O)([O-])C(F)(F)F yielded a viscosity (308.15 K, 101 kPa, x1 = 0.01574, x2 = 0.9011) of 1.515 ± 0.014 mPa·s.
